Values of other authors in EP3735959A1, “COMPOSITIONS TO REDUCE HYPERPIGMENTATION” (InnovativeHealth Group SL, priority 2019, dated 2020).

Tested on: human epidermal melanocytes

Question: For C=C(C)[C@@H]1CCC(C)=C[C@H]1c1c(O)cc(CCCCC)cc1O [CBD, Cannabidiol], which melanogenesis (6 µM, by increasing the expression of MITF (reference 6)) is on record?
Answer: induced melanogenesis

Question: What about the cellular tyrosinase activity (human epidermal melanocytes, concentration dependent (reference 6)) of the same compound?
Answer: significantly increased
